# Assay results as given in ChEMBL document CHEMBL5465560, “Selectivity Literature for EUbOPEN Chemogenomic Library” (2024).
# Tests used:
# [1] = target: Cyclin-dependent kinase 4/cyclin D1 (Homo sapiens) (UniProt P11802+P24385); assay: (§1) Selectivity interaction (KinomeScan (DiscoverX)) EUB0000045b CDK4; type: protein-complex assay
# [2] = target: CDK4/Cyclin D3 (Homo sapiens) (UniProt P11802+P30281); assay: as §1; type: protein-complex assay
# [3] = target: T1, Tyrosine-protein kinase Mer (Homo sapiens) (UniProt Q12866); assay: Selectivity interaction (Upstate Kinase Profiler service (Millipore)) EUB0000056c MERTK; settings: at 1 µM
# T1 sequence (whole entry): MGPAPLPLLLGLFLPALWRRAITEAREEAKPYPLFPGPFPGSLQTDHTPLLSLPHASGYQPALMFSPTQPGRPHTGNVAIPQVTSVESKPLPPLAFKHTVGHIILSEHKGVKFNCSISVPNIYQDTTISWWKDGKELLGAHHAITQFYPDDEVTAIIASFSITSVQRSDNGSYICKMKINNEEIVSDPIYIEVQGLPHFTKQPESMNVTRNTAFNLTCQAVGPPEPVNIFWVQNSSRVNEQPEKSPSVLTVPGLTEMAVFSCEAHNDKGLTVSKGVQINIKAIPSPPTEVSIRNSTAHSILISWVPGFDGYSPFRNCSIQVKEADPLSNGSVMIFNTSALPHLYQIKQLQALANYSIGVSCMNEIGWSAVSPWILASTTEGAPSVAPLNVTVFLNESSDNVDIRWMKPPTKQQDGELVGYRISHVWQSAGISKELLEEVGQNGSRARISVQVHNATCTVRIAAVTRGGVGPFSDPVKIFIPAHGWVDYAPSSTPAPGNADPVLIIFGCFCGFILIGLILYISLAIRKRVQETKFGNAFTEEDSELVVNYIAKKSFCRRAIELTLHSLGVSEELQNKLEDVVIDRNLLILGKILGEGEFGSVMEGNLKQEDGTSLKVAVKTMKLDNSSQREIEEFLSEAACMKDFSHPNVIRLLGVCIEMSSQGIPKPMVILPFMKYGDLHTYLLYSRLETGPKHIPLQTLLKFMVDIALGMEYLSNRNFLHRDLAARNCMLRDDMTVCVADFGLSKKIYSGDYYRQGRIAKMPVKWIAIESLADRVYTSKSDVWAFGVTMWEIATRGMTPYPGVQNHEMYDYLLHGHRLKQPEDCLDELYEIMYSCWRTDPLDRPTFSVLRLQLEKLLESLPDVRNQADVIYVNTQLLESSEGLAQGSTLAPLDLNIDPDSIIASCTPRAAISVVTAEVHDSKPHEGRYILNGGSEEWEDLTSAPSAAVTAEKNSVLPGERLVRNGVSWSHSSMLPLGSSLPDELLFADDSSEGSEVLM
# [4] = target: Death-associated protein kinase 2 (Homo sapiens) (UniProt Q9UIK4); assay: Selectivity interaction (Upstate Kinase Profiler service (Millipore)) EUB0000056c DAPK2; settings: at 1 µM
# Death-associated protein kinase 2 (Homo sapiens), sequence (Q9UIK4 whole entry, looked up): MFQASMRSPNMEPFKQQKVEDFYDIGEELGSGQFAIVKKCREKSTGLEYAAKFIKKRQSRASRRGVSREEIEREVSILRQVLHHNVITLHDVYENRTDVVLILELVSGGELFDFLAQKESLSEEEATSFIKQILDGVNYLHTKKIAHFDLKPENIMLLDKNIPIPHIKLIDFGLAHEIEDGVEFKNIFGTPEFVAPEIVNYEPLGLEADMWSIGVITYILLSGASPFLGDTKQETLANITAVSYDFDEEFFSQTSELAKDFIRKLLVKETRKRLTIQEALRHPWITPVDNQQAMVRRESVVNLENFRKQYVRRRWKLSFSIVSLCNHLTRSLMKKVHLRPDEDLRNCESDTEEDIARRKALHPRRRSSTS
# [5] = target: Cyclin-dependent kinase 4/cyclin D1 (Homo sapiens, UniProt P11802)
# Cyclin-dependent kinase 4/cyclin D1, sequence (P11802 whole entry): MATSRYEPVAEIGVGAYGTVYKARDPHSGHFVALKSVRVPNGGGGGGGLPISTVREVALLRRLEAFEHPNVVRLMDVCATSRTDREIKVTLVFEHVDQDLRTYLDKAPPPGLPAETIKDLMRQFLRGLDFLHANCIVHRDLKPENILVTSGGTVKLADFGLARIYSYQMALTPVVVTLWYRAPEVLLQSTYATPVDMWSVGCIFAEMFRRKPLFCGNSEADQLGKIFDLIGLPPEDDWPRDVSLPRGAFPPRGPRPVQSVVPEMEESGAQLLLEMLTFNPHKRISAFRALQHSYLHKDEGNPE
# Cyclin-dependent kinase 4/cyclin D1, sequence (P24385 whole entry, further chain): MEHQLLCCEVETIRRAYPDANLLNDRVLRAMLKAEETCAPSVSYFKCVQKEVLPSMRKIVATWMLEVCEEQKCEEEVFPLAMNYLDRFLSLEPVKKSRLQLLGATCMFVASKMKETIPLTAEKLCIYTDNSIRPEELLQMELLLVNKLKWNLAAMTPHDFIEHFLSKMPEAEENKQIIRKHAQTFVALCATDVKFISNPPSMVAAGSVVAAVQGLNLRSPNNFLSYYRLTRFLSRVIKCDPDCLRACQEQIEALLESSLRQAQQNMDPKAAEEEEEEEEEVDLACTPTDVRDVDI
# [6] = target: T2, Serine/threonine-protein kinase Sgk3 (Homo sapiens) (UniProt Q96BR1); assay: Selectivity interaction (ProQinase) EUB0000171b SGK3
# T2 sequence (whole entry): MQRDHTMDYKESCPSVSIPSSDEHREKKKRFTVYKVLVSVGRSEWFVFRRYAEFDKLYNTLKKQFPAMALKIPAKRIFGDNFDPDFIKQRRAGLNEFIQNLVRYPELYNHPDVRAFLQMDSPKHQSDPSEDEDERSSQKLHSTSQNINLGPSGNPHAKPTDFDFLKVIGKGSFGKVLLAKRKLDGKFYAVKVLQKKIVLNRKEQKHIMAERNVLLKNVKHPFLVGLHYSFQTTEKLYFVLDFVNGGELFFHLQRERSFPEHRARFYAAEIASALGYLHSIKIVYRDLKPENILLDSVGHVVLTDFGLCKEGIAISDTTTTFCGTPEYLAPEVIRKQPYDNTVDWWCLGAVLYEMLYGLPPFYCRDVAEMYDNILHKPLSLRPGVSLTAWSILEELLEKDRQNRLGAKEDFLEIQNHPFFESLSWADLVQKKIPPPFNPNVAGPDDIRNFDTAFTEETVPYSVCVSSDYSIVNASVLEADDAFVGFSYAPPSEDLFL
# [7] = target: Death-associated protein kinase 3 (Homo sapiens) (UniProt O43293); assay: Selectivity interaction (Kinase panel (Invitrogen)) EUB0000639a DAPK3; settings: at 200 nM
# Death-associated protein kinase 3 (Homo sapiens), sequence (O43293 whole entry, looked up): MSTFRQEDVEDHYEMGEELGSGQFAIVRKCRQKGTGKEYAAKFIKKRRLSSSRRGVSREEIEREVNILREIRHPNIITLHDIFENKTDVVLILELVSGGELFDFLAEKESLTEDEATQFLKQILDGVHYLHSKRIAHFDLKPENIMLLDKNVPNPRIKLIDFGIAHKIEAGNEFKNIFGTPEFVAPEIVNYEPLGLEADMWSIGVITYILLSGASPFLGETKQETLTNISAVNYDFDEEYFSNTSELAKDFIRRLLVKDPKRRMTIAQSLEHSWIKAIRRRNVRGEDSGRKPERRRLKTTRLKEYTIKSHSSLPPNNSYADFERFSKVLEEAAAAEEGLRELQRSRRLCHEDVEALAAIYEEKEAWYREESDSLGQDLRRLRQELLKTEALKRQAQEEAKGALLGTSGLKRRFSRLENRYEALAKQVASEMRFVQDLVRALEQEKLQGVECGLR
# [8] = target: Dual specificity mitogen-activated protein kinase kinase 2 (Homo sapiens) (UniProt P36507); assay: Selectivity interaction (Kinase panel (Invitrogen)) EUB0000639a MAP2K2; settings: at 200 nM
# Dual specificity mitogen-activated protein kinase kinase 2 (Homo sapiens), sequence (P36507 whole entry): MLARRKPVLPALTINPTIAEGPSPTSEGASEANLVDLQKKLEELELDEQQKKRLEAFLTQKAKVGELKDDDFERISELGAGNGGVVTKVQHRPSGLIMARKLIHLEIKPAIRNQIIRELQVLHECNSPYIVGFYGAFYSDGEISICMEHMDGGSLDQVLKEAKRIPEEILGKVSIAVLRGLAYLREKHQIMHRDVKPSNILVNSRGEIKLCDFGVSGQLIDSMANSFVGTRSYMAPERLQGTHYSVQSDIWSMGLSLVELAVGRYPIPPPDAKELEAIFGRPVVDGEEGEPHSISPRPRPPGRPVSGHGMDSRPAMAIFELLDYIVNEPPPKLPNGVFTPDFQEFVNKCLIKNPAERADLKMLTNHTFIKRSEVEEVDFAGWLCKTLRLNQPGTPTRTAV
# [9] = target: Cyclin-dependent kinase 12 (Homo sapiens, UniProt Q9NYV4); assay: Selectivity interaction (ActivX KiNativ screen (kinase selectivity in THP-1 cell lysates)) EUB0000639a CDK12; type: subcellular; settings: lysate
# Cyclin-dependent kinase 12, sequence (Q9NYV4 whole entry, looked up): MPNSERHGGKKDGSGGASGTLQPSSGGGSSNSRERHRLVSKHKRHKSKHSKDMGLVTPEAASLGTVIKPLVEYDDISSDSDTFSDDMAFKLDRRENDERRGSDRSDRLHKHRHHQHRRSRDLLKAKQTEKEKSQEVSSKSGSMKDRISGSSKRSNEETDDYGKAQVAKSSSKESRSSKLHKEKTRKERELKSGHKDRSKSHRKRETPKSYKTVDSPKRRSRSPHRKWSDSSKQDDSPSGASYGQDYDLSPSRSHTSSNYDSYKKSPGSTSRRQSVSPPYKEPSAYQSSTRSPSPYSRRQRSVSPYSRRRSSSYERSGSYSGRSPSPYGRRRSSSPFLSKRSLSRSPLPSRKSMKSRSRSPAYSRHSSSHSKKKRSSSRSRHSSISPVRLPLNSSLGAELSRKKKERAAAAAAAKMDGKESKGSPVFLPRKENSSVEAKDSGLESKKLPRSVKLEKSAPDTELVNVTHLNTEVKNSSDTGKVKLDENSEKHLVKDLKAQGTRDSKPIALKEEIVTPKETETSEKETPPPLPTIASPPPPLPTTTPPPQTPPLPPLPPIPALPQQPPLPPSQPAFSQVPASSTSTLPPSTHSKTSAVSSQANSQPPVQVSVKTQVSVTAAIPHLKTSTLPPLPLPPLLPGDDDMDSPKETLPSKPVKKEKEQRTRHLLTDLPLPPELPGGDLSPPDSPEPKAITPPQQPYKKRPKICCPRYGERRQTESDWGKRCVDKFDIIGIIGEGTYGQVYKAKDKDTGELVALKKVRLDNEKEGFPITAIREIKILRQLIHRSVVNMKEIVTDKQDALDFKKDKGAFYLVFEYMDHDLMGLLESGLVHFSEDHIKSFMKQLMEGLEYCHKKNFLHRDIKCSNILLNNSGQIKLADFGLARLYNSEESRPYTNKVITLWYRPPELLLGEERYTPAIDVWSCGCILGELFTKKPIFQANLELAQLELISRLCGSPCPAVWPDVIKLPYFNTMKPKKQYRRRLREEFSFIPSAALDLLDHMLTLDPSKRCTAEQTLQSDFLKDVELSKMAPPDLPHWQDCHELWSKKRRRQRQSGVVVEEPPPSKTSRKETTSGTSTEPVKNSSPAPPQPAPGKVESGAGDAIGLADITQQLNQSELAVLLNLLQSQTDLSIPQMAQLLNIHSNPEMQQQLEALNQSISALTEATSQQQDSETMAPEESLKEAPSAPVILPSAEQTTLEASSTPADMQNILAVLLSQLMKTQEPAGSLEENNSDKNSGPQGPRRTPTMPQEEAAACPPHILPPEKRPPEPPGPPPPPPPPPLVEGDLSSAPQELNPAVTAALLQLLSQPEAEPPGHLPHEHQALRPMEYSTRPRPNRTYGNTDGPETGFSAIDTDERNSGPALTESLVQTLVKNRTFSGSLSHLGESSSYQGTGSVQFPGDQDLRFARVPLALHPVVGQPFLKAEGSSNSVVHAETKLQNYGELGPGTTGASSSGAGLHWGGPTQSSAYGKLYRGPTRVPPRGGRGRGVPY
# [10] = target: T3, Serine/threonine-protein kinase Nek5 (Homo sapiens) (UniProt Q6P3R8); assay: Selectivity interaction (KinomeScan (DiscoverX)) EUB0000092b NEK5; settings: at 10 µM
# T3 sequence (whole entry): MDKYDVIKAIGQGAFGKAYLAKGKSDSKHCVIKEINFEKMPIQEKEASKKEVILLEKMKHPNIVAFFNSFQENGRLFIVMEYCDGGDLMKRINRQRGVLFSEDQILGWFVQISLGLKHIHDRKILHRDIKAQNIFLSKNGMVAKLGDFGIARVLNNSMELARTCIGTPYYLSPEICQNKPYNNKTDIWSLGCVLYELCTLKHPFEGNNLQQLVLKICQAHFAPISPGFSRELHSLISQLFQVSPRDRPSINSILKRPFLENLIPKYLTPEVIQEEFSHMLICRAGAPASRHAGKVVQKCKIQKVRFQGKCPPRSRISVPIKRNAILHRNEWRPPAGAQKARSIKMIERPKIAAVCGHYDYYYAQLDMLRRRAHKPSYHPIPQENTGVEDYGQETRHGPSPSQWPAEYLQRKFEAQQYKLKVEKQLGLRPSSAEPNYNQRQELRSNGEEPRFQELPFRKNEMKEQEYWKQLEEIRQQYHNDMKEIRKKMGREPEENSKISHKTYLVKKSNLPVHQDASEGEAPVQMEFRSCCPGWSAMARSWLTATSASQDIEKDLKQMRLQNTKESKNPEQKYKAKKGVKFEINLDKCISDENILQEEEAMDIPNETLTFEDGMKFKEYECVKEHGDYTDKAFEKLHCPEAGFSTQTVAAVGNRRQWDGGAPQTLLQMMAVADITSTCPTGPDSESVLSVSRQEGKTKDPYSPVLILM
smiles,measurement,setting,value
C=CC(=O)Nc1cc(-n2c(=O)ccc3cnc4ccc(-c5ccc(NS(C)(=O)=O)cc5)cc4c32)ccc1C,% of control,[1]; at 1 µM,100%
same,% of control,[1]; at 10 µM,100%
same,% of control,[2]; at 1 µM,100%
same,% of control,[2]; at 10 µM,93%
Cc1ccc(-c2ccc3c(ccc4sc5c(c43)NC[C@@H](C)NC5=O)n2)cn1,% of inhibition,[3],97%
same,% of inhibition,[4],30%
CCc1cccc(CC)c1NC(=O)c1nn(C)c2c1CCc1cnc(Nc3ccc(C(=O)NC4CCN(C)CC4)cc3OC(F)(F)F)nc1-2,IC50,[5],> 10 µM
C=CC(=O)Nc1cccc(C(=O)Nc2ccc(Nc3cc(-c4[nH]c(SC)nc4C)ccn3)cc2)c1,% of control,[6]; at 1 µM,82%
same,% of control,[6]; at 5 µM,76%
CC[C@@H]1[C@H](F)C(=O)N[C@@H]1COc1nccc2cc(C(N)=O)c(OC)cc12 [ZIMLOVISERTIB],% of inhibition,[7],20.3%
same,% of inhibition,[8],13.2%
same,% of inhibition,[9]; at 0.01 µM,-24.7%
same,% of inhibition,[9]; at 0.04 µM,-15%
same,% of inhibition,[9]; at 0.2 µM,-4.7%
same,% of inhibition,[9]; at 1 µM,-15.6%
same,% of inhibition,[9]; at 5 µM,-19.6%
CCC(=O)N1CCN(c2ccc(-n3c(=O)ccc4cnc5ccc(-c6cnc7ccccc7c6)cc5c43)cc2C(F)(F)F)CC1,% of control,[10],5.8%
